PMC6934184, “Selective DNA-PKcs inhibition extends the therapeutic index of localized radiotherapy and chemotherapy” (The Journal of Clinical Investigation, 2019)

Target: T1, LRRK2 G2019S (Homo sapiens, UniProt Q5S007, G2019S)
T1 construct: purchased Thermo Fisher Scientific (Life Technologies) SelectScreen
Experiment: SelectScreen Adapta
Assay type: biochemical
Method: The in vitro kinase selectivity of NU5455 was determined using the SelectScreen Broad Assay Panel (Thermo Fisher Scientific) involving activity and binding assays (Supplemental Table 1). […] Class IA PI3Ks were measured using the p85α subunit.
Kinase [ATP] % Assay Kinase [ATP] % Assay Kinase [ATP] % Assay Kinase [ATP] % Assay […]
SGK (SGK1) Km app 8.5 Z MAP4K2 (GCK) Km app 2.7 Z TLK2 n/a -0.3 L STK38 (NDR) n/a -5.9 L
MERTK (cMER) Km app 8.3 Z CDK2/cyclin A Km app 2.7 Z TGFBR1 (ALK5) n/a -0.4 L MATK (HYL) Km app -6.3 Z
FYN Km app 8.3 Z EPHA1 Km app 2.7 Z CLK3 Km app -0.5 Z ABL1 E255K Km app -6.6 Z
TEC n/a 8.1 L CDK2/cyclin E1 n/a 2.7 L MAP3K14 (NIK) n/a -0.5 L STK17A (DRAK1) n/a -6.6 L
KIT V654A n/a 8.1 L TESK2 n/a 2.7 L AKT3 (PKB gamma) Km app -0.5 Z JAK2 JH1 JH2 Km app -6.7 Z
ROS1 Km app 8.0 Z SPHK1 Km app 2.7 A MAP3K9 (MLK1) Km app -0.5 Z PRKACB (PRKAC beta) n/a -6.8 L
FGFR3 K650E Km app 7.9 Z AMPK A2/B1/G1 Km app 2.6 Z IKBKB (IKK beta) Km app -0.6 Z PDGFRA (PDGFR alpha) Km app -6.8 Z
RAF1 (cRAF) Y340D Y341D 100 7.9 Z DYRK3 Km app 2.6 Z CAMK2A (CaMKII alpha) Km app -0.6 Z NEK9 Km app -7.2 Z
PI4KA (PI4K alpha) 10 7.8 A CSNK1D (CK1 delta) Km app 2.6 Z PRKCB1 (PKC beta I) Km app -0.7 Z PDK1 Km app -7.3 Z
HIPK2 Km app 7.8 Z ACVR2A n/a 2.5 L TTK n/a -0.7 L RPS6KB1 (p70S6K) Km app -7.8 Z
CSK Km app 7.6 Z DDR2 T654M n/a 2.5 L ZAK n/a -0.7 L STK38L (NDR2) n/a -8.4 L
PRKCG (PKC gamma) Km app 7.6 Z JAK2 Km app 2.5 Z IKBKE (IKK epsilon) Km app -0.7 Z ABL1 G250E Km app -8.5 Z
SRMS (Srm) Km app 7.5 Z HIPK3 (YAK1) Km app 2.5 Z CAMK2G (CaMKII gamma) n/a -0.8 L PRKD1 (PKC mu) Km app -8.5 Z
YES1 Km app 7.4 Z AMPK (A1/B1/G2) n/a 2.4 L TLK1 n/a -0.8 L CDK5/p35 Km app -8.6 Z
RPS6KA5 (MSK1) Km app 7.4 Z MYO3B (MYO3 beta) n/a 2.3 L MAPK12 (p38 gamma) Km app -0.8 Z PDGFRA T674I Km app -8.9 Z
TNIK n/a 7.3 L PASK Km app 2.3 Z PRKCI (PKC iota) Km app -0.8 Z BLK Km app -8.9 Z
FER Km app 7.1 Z ACVRL1 (ALK1) n/a 2.3 L PKN2 (PRK2) n/a -1.0 L PRKD2 (PKD2) Km app -9.1 Z
CDK16 (PCTK1)/cyclin Y n/a 7.0 L EGFR (ErbB1) L861Q Km app 2.2 Z PIM1 Km app -1.0 Z CSNK1G2 (CK1 gamma 2) Km app -9.3 Z
MST4 Km app 6.9 Z RPS6KA3 (RSK2) Km app 2.1 Z CDK5/p25 Km app -1.1 Z ROCK1 Km app -9.5 Z
FLT1 (VEGFR1) Km app 6.5 Z STK23 (MSSK1) Km app 2.0 Z SRPK1 Km app -1.1 Z PRKCB2 (PKC beta II) Km app -9.6 Z
DYRK1A Km app 6.4 Z ALK R1275Q n/a 2.0 L BRSK1 (SAD1) Km app -1.1 Z CSNK1G1 (CK1 gamma 1) Km app -9.9 Z
PRKCD (PKC delta) Km app 6.2 Z TBK1 Km app 2.0 Z MAP3K3 (MEKK3) n/a -1.1 L ABL2 (Arg) Km app -10.3 Z
EGFR (ErbB1) Km app 6.0 Z ACVR1B (ALK4) Km app 2.0 Z AMPK A1/B1/G1 Km app -1.2 Z STK3 (MST2) Km app -10.3 Z
CDC7/DBF4 n/a 6.0 L CDK3/cyclin E1 n/a 1.9 L WNK3 n/a -1.2 L CAMK4 (CaMKIV) Km app -10.4 Z
JAK3 Km app 6.0 Z KDR (VEGFR2) Km app 1.8 Z LATS1 n/a -1.3 L MKNK1 (MNK1) Km app -10.7 Z
MAPK13 (p38 delta) Km app 5.8 Z ULK1 n/a 1.8 L DMPK n/a -1.5 L FLT3 ITD n/a -11.6 L
FRAP1 (mTOR) Km app 5.7 Z AURKB (Aurora B) Km app 1.7 Z CDK2/cyclin A1 n/a -1.6 L CHEK2 (CHK2) Km app -11.7 Z
KIT Y823D n/a 5.6 L LRRK2 Km app 1.7 A LIMK1 n/a -1.7 L LTK (TYK1) Km app -13.1 Z
ITK Km app 5.5 Z MAP2K3 (MEK3) n/a 1.6 L DYRK1B Km app -1.8 Z JAK2 JH1 JH2 V617F Km app -13.8 Z
KIT Km app 5.3 Z DAPK1 Km app 1.6 A DDR1 n/a -1.8 L EPHA8 Km app -13.8 Z
CDK7/cyclin H/MNAT1 Km app 5.3 A EPHA6 n/a 1.6 L BTK Km app -2.0 Z EGFR (ErbB1) T790M L858R Km app -14.1 Z
RET Km app 5.2 Z MAP4K1 (HPK1) n/a 1.6 L ADRBK1 (GRK2) Km app -2.0 Z MET M1250T Km app -14.5 Z […]

T1 sequence (Q5S007 whole entry G2019S): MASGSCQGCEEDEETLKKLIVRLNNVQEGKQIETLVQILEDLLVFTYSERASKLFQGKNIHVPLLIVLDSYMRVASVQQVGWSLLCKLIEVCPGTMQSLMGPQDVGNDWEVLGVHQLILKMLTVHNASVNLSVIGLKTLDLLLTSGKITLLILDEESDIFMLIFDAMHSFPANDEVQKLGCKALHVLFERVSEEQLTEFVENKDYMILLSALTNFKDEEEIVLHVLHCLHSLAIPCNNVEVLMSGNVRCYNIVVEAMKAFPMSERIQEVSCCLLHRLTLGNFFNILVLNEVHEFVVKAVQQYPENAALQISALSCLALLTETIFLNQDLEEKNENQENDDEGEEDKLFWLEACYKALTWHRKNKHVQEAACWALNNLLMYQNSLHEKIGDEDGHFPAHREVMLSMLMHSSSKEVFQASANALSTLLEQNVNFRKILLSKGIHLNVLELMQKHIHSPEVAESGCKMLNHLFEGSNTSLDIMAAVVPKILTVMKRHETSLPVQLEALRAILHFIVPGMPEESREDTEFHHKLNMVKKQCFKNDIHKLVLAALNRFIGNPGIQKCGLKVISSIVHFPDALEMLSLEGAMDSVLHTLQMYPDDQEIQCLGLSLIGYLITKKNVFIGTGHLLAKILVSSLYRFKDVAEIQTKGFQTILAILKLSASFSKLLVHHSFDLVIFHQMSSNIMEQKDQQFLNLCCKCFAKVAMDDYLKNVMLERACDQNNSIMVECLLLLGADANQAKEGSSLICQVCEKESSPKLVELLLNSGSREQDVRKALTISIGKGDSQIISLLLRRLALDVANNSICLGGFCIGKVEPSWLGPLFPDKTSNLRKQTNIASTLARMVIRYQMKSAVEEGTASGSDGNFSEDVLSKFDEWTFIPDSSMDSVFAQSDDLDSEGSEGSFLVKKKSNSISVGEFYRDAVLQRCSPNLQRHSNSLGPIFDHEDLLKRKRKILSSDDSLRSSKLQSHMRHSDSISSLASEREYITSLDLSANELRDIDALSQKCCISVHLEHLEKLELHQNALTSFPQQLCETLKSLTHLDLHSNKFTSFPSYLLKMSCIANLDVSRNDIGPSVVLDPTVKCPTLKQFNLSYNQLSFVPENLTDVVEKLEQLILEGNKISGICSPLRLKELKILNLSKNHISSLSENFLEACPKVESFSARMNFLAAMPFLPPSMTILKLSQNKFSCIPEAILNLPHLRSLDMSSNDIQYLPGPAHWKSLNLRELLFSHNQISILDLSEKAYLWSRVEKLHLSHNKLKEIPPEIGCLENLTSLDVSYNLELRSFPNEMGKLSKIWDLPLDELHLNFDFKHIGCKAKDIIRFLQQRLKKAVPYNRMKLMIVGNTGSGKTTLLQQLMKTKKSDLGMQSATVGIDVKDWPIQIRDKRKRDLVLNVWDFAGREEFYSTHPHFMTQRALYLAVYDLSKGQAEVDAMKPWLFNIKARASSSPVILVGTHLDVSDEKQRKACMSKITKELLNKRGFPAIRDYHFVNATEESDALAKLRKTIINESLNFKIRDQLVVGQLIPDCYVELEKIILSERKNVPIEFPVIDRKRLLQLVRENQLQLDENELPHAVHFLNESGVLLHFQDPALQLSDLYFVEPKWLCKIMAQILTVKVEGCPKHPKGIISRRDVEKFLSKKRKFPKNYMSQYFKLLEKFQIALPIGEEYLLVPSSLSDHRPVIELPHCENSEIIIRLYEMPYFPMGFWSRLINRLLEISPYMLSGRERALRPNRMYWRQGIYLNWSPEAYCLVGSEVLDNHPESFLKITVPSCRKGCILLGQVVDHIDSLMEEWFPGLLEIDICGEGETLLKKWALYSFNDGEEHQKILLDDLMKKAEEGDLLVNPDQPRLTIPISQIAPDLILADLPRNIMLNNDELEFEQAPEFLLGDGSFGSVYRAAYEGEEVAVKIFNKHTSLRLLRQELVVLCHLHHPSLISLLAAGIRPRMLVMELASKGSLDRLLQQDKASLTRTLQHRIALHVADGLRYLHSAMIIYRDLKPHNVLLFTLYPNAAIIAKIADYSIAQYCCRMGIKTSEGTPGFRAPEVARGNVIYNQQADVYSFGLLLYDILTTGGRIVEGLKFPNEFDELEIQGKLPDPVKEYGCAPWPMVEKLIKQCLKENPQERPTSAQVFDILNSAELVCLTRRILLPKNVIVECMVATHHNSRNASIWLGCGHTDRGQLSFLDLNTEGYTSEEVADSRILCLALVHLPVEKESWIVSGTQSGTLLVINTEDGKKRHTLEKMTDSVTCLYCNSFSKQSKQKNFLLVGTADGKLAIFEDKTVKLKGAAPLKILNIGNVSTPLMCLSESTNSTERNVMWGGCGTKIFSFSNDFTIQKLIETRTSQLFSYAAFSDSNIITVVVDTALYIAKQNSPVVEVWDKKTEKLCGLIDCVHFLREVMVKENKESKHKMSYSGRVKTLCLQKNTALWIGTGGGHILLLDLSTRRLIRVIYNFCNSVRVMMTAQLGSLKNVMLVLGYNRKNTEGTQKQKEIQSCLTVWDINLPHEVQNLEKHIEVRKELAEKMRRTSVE

For `CN(C(=O)CN1CCOCC1)c1ccc2sc3c(-c4cccc5c(=O)cc(N6CC7CCC(C6)O7)oc45)cccc3c2c1` [NU5455], the inhibition at 1 µM was 3%.
